Assay results: US9662320B2, “Antagonists of the cannabinoid receptor CB1 for use in the treatment of diseases associated with neuronal dendritic abnormalities” (Universitat Pompeu Fabra, priority 2013, dated 2017)

Tested on: Fmr1^−/y mice
Experiment: Dendritic spine density and morphology analysis in Fmr1−/y mice treated with rimonabant
Type: in vivo
Settings: 1 mg/kg, i.p., 7 d
Procedure: Fmr1 knockout (KO) mice in FVB background (Fmr1 KO, FVB.129P2-Pde6b^+ Tyr^c-ch Fmr1^tm1Cgr/J) and wild-type mice (WT, FVB.129P2-Pde6b^+ Tyr^c-ch/AntJ) were purchased from The Jackson Laboratory and crossed to obtain Fmr1^−/y and WT littermates. All experimental animals were bred in-house at the Barcelona Biomedical Research Park (PRBB) Animal Facility. Fmr1^−/y and WT mice were used at 12 to 16 weeks of age. Mice were housed four per cage in a temperature (21±1° C.) and humidity (55±10%) controlled environment. Food and water were available ad libitum. All the experiments were performed during the light phase of a 12 h light/dark cycle (lights on at 8 am and off at 8 pm). Animals were handled for one week before starting the experiments. All animal procedures followed the standard ethical guidelines (European Communities Directive […]) and were approved by the local ethical committee (Comitè Èlic d'Experimentació Animal-Parc de Recerca Biomèdica de Barcelona, CEEA-PRBB). The PRBB has also the Animal Welfare Assurance (#A5388-01, IACUC Approval Date Jun. 8, 2009) granted by the Office of Laboratory Animal Welfare (OLAW) of the National Institutes of Health (USA). All behavioral tests were performed by researchers blind to the different experimental groups.
Rimonabant was obtained from Sanofi-Aventis (Sanofi-Aventis Recherche). Rimonabant was injected intraperitoneally (i.p.) in a volume of 10 ml per kg.
Dendritic spine analysis was performed as previously described (Lee K W. et al., Proc Natl Acad Sci USA. 2006; 103(9): 3399-404) in mice that received a chronic administration of rimonabant (1 mg kg^−1, 7 d) or its vehicle. Brains were extracted after perfusion (4% PFA in PB) 3 h after the last administration of rimonabant or vehicle solution on the seventh day of treatment. […]
Results are reported as mean±s.e.m. The experiments were evaluated by one-way analysis of variance (ANOVA) followed by the Dunnett's post-hoc test when required. […]

[1] = compared to vehicle-treated Fmr1^−/y mice

Cc1c(C(=O)NN2CCCCC2)nn(-c2ccc(Cl)cc2Cl)c1-c1ccc(Cl)cc1 [rimonabant, 5-(4-Chlorophenyl)-1-(2,4-dichloro-phenyl)-4-methyl-N-(piperidin-1-yl)-1H-pyrazole-3-carboxamide]
dendritic spine density of CA1 pyramidal neurons (CA1 field of the hippocampus): normalized
mushroom/wide (mature) spines [1]: increase
thin/stubby (immature) spines [1]: decrease
